In patent US8163793B2, “Proline derivatives” (Hoffman-La Roche Inc., priority 2009, dated 2012):

Experiments:
[1] = molecular target: Cathepsin S (UniProt P25774); test: Cathepsin enzyme inhibition assay (fluorogenic peptide substrate Z-Val-Val-Arg-AMC), Cathepsin S; format: biochemical, human and mouse; details: enzyme 1 nM, substrate 20 μM, pH 6.5; read-out: CatS IC50
In short: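 Human or mouse cathepsin S (1 nM) was run in 100 mM potassium phosphate pH 6.5 with 5 mM EDTA, 0.001% Triton X-100 and 5 mM DTT. The rise in AMC fluorescence from cleavage was measured, and IC50 values were calculated by standard methods and expressed in μM.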

[2] = molecular target: Cat L (UniProt P07711); test: Cathepsin enzyme inhibition assay (fluorogenic peptide substrate Z-Val-Val-Arg-AMC), Cathepsin L; format: biochemical, human and mouse; details: enzyme 1 nM, substrate 20 μM, pH 6.5; read-out: CatL IC50
In short: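 Cathepsin L at 1 nM was mixed with compound, then started with 20 μM Z-Val-Val-Arg-AMC in pH 6.5 potassium phosphate with EDTA, Triton X-100 and 5 mM DTT. AMC fluorescence (ex 360/em 465 nm) was followed over 20 min. IC50 is given in μM.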

CC1(C(=O)N2C[C@H](S(=O)(=O)c3ccc(OCC(F)(F)F)cc3Cl)C[C@H]2C(=O)NC2(C#N)CC2)CC1 [Example 175, (2S,4R)-4-[2-Chloro-4-(2,2,2-trifluoro-ethoxy)-benzenesulfonyl]-1-(1-methyl-cyclopropanecarbonyl)-pyrrolidine-2-carboxylic acid (1-cyano-cyclopropyl)-amide]
IC50 [1]: 0.49 nM | IC50 [2]: 15.9 µM

CC(C)(C)C(=O)N1C[C@H](S(=O)(=O)c2ccc(OCC(F)(F)F)cc2Cl)C[C@H]1C(=O)NC1(C#N)CC1 [Example 176, (2S,4R)-4-[2-Chloro-4-(2,2,2-trifluoro-ethoxy)-benzenesulfonyl]-1-(2,2-dimethyl-propionyl)-pyrrolidine-2-carboxylic acid (1-cyano-cyclopropyl)-amide]
IC50 [1]: 0.98 nM | IC50 [2]: 35.8 µM

N#CC1(NC(=O)[C@@H]2C[C@@H](S(=O)(=O)c3ccc(OCC(F)(F)F)cc3Cl)CN2C(=O)c2ccccc2C(F)(F)F)CC1 [Example 177, (2S,4R)-4-[2-Chloro-4-(2,2,2-trifluoro-ethoxy)-benzenesulfonyl]-1-(2-trifluoromethyl-benzoyl)-pyrrolidine-2-carboxylic acid (1-cyano-cyclopropyl)-amide]
IC50 [1]: 0.29 nM | IC50 [2]: 5.83 µM

N#CC1(NC(=O)[C@@H]2C[C@@H](S(=O)(=O)c3ccc(OCC(F)(F)F)cc3Cl)CN2C(=O)C2(c3ccc(Cl)cc3)CC2)CC1 [Example 178, (2S,4R)-1-[1-(4-Chloro-phenyl)-cyclopropanecarbonyl]-4-[2-chloro-4-(2,2,2-trifluoro-ethoxy)-benzenesulfonyl]-pyrrolidine-2-carboxylic acid (1-cyano-cyclopropyl)-amide]
IC50 [1]: 0.16 nM | IC50 [2]: 0.036 µM

CC(C)C(=O)N1C[C@H](S(=O)(=O)c2ccc(OCC(F)(F)F)cc2Cl)C[C@H]1C(=O)NC1(C#N)CC1 [Example 179, (2S,4R)-4-[2-Chloro-4-(2,2,2-trifluoro-ethoxy)-benzenesulfonyl]-1-isobutyryl-pyrrolidine-2-carboxylic acid (1-cyano-cyclopropyl)-amide]
IC50 [1]: 0.42 nM | IC50 [2]: 17.6 µM

CC(C)CC(=O)N1C[C@H](S(=O)(=O)c2ccc(OCC(F)(F)F)cc2Cl)C[C@H]1C(=O)NC1(C#N)CC1 [Example 180, (2S,4R)-4-[2-Chloro-4-(2,2,2-trifluoro-ethoxy)-benzenesulfonyl]-1-(3-methyl-butyryl)-pyrrolidine-2-carboxylic acid (1-cyano-cyclopropyl)-amide]
IC50 [1]: 0.47 nM | IC50 [2]: 21.4 µM

N#CC1(NC(=O)[C@@H]2C[C@@H](S(=O)(=O)c3ccc(OC4COC4)cc3Cl)CN2)CC1 [Example 181, (2S,4R)-4-[2-Chloro-4-(oxetan-3-yloxy)-benzenesulfonyl]-pyrrolidine-2-carboxylic acid (1-cyano-cyclopropyl)-amide]
IC50 [1]: 3.7 nM | IC50 [2]: 16.5 µM

N#CC1(NC(=O)C2C[C@@H](S(=O)(=O)c3ccc(OCC(F)(F)F)cc3Cl)CN2C=O)CC1 (stereo partly drawn) [Example 182, (R)-4-[2-Chloro-4-(2,2,2-trifluoro-ethoxy)-benzenesulfonyl]-1-formyl-pyrrolidine-2-carboxylic Acid (1-cyano-cyclopropyl)-amide]
IC50 [1]: 9.7 nM | IC50 [2]: ≥ 25 µM

C[C@H](Oc1ccc(S(=O)(=O)[C@@H]2C[C@@H](C(=O)NC3(C#N)CC3)N(C(=O)C3(C(F)(F)F)CC3)C2)c(Cl)c1)C(F)(F)F [Example 183, (2S,4R)-4-[2-Chloro-4-((S)-2,2,2-trifluoro-1-methyl-ethoxy)-benzenesulfonyl]-1-(1-trifluoromethyl-cyclopropanecarbonyl)-pyrrolidine-2-carboxylic acid (1-cyano-cyclopropyl)-amide]
IC50 [1]: 0.44 nM | IC50 [2]: 9.67 µM

C[C@H](Oc1ccc(S(=O)(=O)[C@@H]2C[C@H](C(=O)NC3(C#N)CC3)N(C(=O)C3(C(F)(F)F)CC3)C2)c(Cl)c1)C(F)(F)F [Example 184, (2R,4R)-4-[2-Chloro-4-((S)-2,2,2-trifluoro-1-methyl-ethoxy)-benzenesulfonyl]-1-(1-trifluoromethyl-cyclopropanecarbonyl)-pyrrolidine-2-carboxylic acid (1-cyano-cyclopropyl)-amide]
IC50 [1]: 32 nM | IC50 [2]: ≥ 25 µM

N#CC1(NC(=O)[C@@H]2C[C@@H](S(=O)(=O)c3ccc(Cl)cc3Cl)CN2c2ncccc2C(F)(F)F)CC1 [Example 188, (2S,4R)-4-(2,4-Dichloro-benzenesulfonyl)-1-(3-trifluoromethyl-pyridin-2-yl)-pyrrolidine-2-carboxylic acid (1-cyano-cyclopropyl)-amide]
IC50 [1]: 6.4 nM | IC50 [2]: 16.7 µM

N#CC1(NC(=O)[C@H]2C[C@@H](S(=O)(=O)c3ccc(Cl)cc3Cl)CN2c2ncccc2C(F)(F)F)CC1 [Example 189, (2R,4R)-4-(2,4-Dichloro-benzenesulfonyl)-1-(3-trifluoromethyl-pyridin-2-yl)-pyrrolidine-2-carboxylic acid (1-cyano-cyclopropyl)-amide]
IC50 [1]: 665 nM | IC50 [2]: ≥ 25 µM

CCN1CCN(c2ccc(S(=O)(=O)[C@@H]3C[C@@H](C(=O)NC4(C#N)CC4)N(c4ncccc4C(F)(F)F)C3)c(Cl)c2)CC1 [Example 190, (2S,4R)-4-[2-Chloro-4-(4-ethyl-piperazin-1-yl)-benzenesulfonyl]-1-(3-trifluoromethyl-pyridin-2-yl)-pyrrolidine-2-carboxylic acid (1-cyano-cyclopropyl)-amide]
IC50 [1]: 1.5 nM | IC50 [2]: 5.16 µM

CCN1CCN(c2ccc(S(=O)(=O)[C@@H]3C[C@H](C(=O)NC4(C#N)CC4)N(c4ncccc4C(F)(F)F)C3)c(Cl)c2)CC1 [Example 191, (2R,4R)-4-[2-Chloro-4-(4-ethyl-piperazin-1-yl)-benzenesulfonyl]-1-(3-trifluoromethyl-pyridin-2-yl)-pyrrolidine-2-carboxylic acid (1-cyano-cyclopropyl)-amide]
IC50 [1]: 107 nM | IC50 [2]: ≥ 25 µM

Cc1cc(N2C[C@H](S(=O)(=O)c3ccccc3C(F)(F)F)C[C@H]2C(=O)NC2(C#N)CC2)n(-c2ccccc2)n1 [Example 192, (2S,4R)-1-(5-Methyl-2-phenyl-2H-pyrazol-3-yl)-4-(2-trifluoromethyl-benzenesulfonyl)-pyrrolidine-2-carboxylic acid (1-cyano-cyclopropyl)-amide]
IC50 [1]: 0.5 nM | IC50 [2]: 43.7 µM

Cc1cc(N2C[C@H](S(=O)(=O)c3ccccc3C(F)(F)F)C[C@H]2C(=O)NC2(C#N)CC2)n(-c2ccnc(Cl)c2)n1 [Example 193, (2S,4R)-1-[2-(2-Chloro-pyridin-4-yl)-5-methyl-2H-pyrazol-3-yl]-4-(2-trifluoromethyl-benzenesulfonyl)-pyrrolidine-2-carboxylic acid (1-cyano-cyclopropyl)-amide]
IC50 [1]: 0.2 nM | IC50 [2]: 28.5 µM

Cc1cc(N2C[C@H](S(=O)(=O)c3ccccc3C(F)(F)F)C[C@H]2C(=O)NC2(C#N)CC2)n(-c2ccc(Cl)cc2)n1 [Example 194, (2S,4R)-1-[2-(4-Chloro-phenyl)-5-methyl-2H-pyrazol-3-yl]-4-(2-trifluoromethyl-benzenesulfonyl)-pyrrolidine-2-carboxylic acid (1-cyano-cyclopropyl)-amide]
IC50 [1]: 0.4 nM | IC50 [2]: 16.6 µM

Cc1cc(N2C[C@H](S(=O)(=O)c3ccccc3C(F)(F)F)C[C@H]2C(=O)NC2(C#N)CC2)n(-c2ccc(F)cc2)n1 [Example 195, (2S,4R)-1-[2-(4-Fluoro-phenyl)-5-methyl-2H-pyrazol-3-yl]-4-(2-trifluoromethyl-benzenesulfonyl)-pyrrolidine-2-carboxylic acid (1-cyano-cyclopropyl)-amide]
IC50 [1]: 3.6 nM | IC50 [2]: ≥ 25 µM

Cc1cc(N2C[C@H](S(=O)(=O)c3ccccc3C(F)(F)F)C[C@H]2C(=O)NC2(C#N)CC2)n(-c2cc[nH]c(=O)c2)n1 [Example 196, (2S,4R)-1-[5-Methyl-2-(2-oxo-1,2-dihydro-pyridin-4-yl)-2H-pyrazol-3-yl]-4-(2-trifluoromethyl-benzenesulfonyl)-pyrrolidine-2-carboxylic acid (1-cyano-cyclopropyl)-amide]
IC50 [1]: 0.3 nM | IC50 [2]: 41.4 µM

C[C@H](Oc1ccc(S(=O)(=O)[C@@H]2C[C@@H](C(=O)NC3(C#N)CC3)N(C(=O)C3CC3)C2)c(Cl)c1)C(F)(F)F [Example 197, (2S,4R)-4-[2-Chloro-4-((S)-2,2,2-trifluoro-1-methyl-ethoxy)-benzenesulfonyl]-1-cyclopropanecarbonyl-pyrrolidine-2-carboxylic acid (1-cyano-cyclopropyl)-amide]
IC50 [1]: 0.9 nM | IC50 [2]: 19 µM

C[C@H](Oc1ccc(S(=O)(=O)[C@@H]2C[C@H](C(=O)NC3(C#N)CC3)N(C(=O)C3CC3)C2)c(Cl)c1)C(F)(F)F [Example 198, (2R,4R)-4-[2-Chloro-4-((S)-2,2,2-trifluoro-1-methyl-ethoxy)-benzenesulfonyl]-1-cyclopropanecarbonyl-pyrrolidine-2-carboxylic acid (1-cyano-cyclopropyl)-amide]
IC50 [1]: 27 nM | IC50 [2]: ≥ 25 µM

C[C@H](Oc1ccc(S(=O)(=O)[C@@H]2C[C@@H](C(=O)NC3(C#N)CC3)N(C(=O)C3(C)CC3)C2)c(Cl)c1)C(F)(F)F [Example 199, (2S,4R)-4-[2-Chloro-4-((S)-2,2,2-trifluoro-1-methyl-ethoxy)-benzenesulfonyl]-1-(1-methyl-cyclopropanecarbonyl)-pyrrolidine-2-carboxylic acid (1-cyano-cyclopropyl)-amide]
IC50 [1]: 0.5 nM | IC50 [2]: 7.74 µM
